Measurements as given in US20250057958A1, “CYTOTOXICITY TARGETING CHIMERAS FOR CCR2-EXPRESSING CELLS” (GLAXOSMITHKLINE INTELLECTUAL PROPERTY DEVELOPMENT LIMITED, priority 2022, published 2025).

Experiments:
[1] = Blood drug concentration analysis (PK) in the in vivo depletion assay; design: species or system human CCR2 (hCCR2) knock-in mice; conditions: human CCR2 (hCCR2) knock-in, C57 background, mouse, whole blood, LC-MS/MS, IV bolus 0.1 mpk compound + 10 mpk anti-cotinine antibody, 48 hours post-dose, read-out: Exposure of Compound of Formula (I) 48 hours post-dose
Protocol: Human CCR2 (hCCR2) knock-in mice (C57 background) were dosed intravenously with a PBS solution containing a compound of Formula (I) to measure depletion of CCR2 expressing cells in peripheral blood. Peripheral blood from IV dosed mice was also analyzed to determine PK properties of the compounds of Formula (I).
Administration to Animal: Solution formulation of antibody and compound of Formula (I) was injected (bolus injection) to the restrained mouse in the right/left lateral tail vein. Animals were dosed with 0.1 milligram per kilogram (mpk) of the compound of Formula (I) and 10 mpk of the anti-cotinine antibody.
Collection of Blood for PK: Blood was collected at time points 0.25 hour, 2 hours, and […] following administration (50 μL/time point) through retro-orbital bleeding under mild isoflurane anesthesia.
Terminal bleeding at end of experiment (48 hr): Approximately 250 μL of blood in K2EDTA tube and approximately 250 μL of blood in SST (serum separation tube) was collected from each mouse through retro-orbital bleeding under deep isoflurane anesthesia. After bleeding, each mouse was sacrificed by cervical dislocation. The blood distribution at termination was determined as follows: • For PK: 50 μL of K2EDTA blood was transferred to another tube for PK • Flow cytometry: Remaining blood (˜200 μL) was used for flow cytometry analysis. • For serum collection: serum separator tubes (BD) were centrifuged at 4° C., 5000 rpm for 15 minutes. Approximately 100 μL serum was separated and stored at −80° C. for further usage. • Blood drug concentration: Samples collected at the various timepoints (0.25 hr, 2 hr, 24 and 48 hr) were analyzed to determine blood drug concentration.
Blood drug concentration analysis: Drug concentration in blood samples was determined by an LC-MS/MS-based bioanalytical method developed at Syngene. Samples were analyzed on Q-Trap, API-5500 LC-MS/MS system coupled with Exion UHPLC system from SCIEX, USA operated in multiple reaction monitoring mode employing electrospray ionization technique in positive polarity. Analyte and internal standard peaks were resolved on Synergi Polar, 75×2.0 mm, 4 μcolumn using mobile phase 10 mM Ammonium acetate in Milli-Q water as phase A and 0.1% Formic acid in acetonitrile as Phase B. Gradient elution was performed with initial composition 95% Phase A at 0.0 min, holding it for 0.2 minutes, ramping to 5% by 1.0 minute, keeping the same for next 0.5 minutes and coming back to 95% by 1.6 minutes. The total run time was 2 minutes.
Working dilutions for calibration curve and quality control standards were prepared by serially diluting 20 mg/mL stock solution with DMSO. Spiked concentrations for calibration curve in the whole blood ranged from 1 ng/mL to 1000 ng/mL. […]

[2] = target: T1, CHOK1 cells engineered to overexpress human CCR2 (Homo sapiens, UniProt P41597); assay: Antibody dependent cellular cytotoxicity (ADCC) reporter assay; assay type: cell-based; conditions: with anti-cotinine antibody (SEQ ID NO: 11/12, human IgG1 Fc S239D/I332E); Jurkat FcγRIIIa NFAT-luciferase reporter cells; 12-18 hours; average if more than one run; read-out: ADCC Reporter Assay pEC50 (converted)
T1 construct: expressed in transfected cells; host or cells: CHOK1 cells
Protocol: An antibody dependent cellular cytoxocity reporter assay was conducted using the following four assay components: (i) ARM compound of Formula (I) targeting CCR2 (concentrations ranging from 1 pM to 10 μM) (ii) anti-cotinine antibody having a heavy chain sequence of SEQ ID NO: 11 and a light chain sequence of SEQ ID NO: 12 (rabbit variable region with human IgG1 Fc domain containing a DE mutation (S239D/I332E)) (concentrations ranging from 0.01 μg/mL to 200 μg/mL); (iii) target cells: CHOK1 cells engineered to overexpress either human CCR2 (typically 1000-20,000 cells perwell) and (iv) reporter cells: Jurkat cells engineered to express FcγRIIIa with the reporter gene luciferase under the control of the NFAT promoter (typically 3000-75,000 cells per well). Reagents were combined in a final volume of 20 μL in a 384—well tissue culture treated plate. All four assay components were incubated together for about 12-18 hours. Thereafter, BioGlo Detection reagent (Promega) was added to the wells to lyse the cells and provide a substrate for the luciferase reporter protein. Luminescence signal was measured on a microplate reader and signal:background was calculated by dividing the signal of a test well by the signal obtained when no ARM compound of Formula (I) was added. EC50 calculations were done using Graphpad Prism Software, specifically a nonlinear regression curve fit (Y=Bottom+(Top−Bottom)/(1+10 ^((Log EC50−X)*HillSlope))).
ARMs compounds of Formula (I) of the invention were tested for ADCC activity in the above assay in or more experimental runs and the results are shown in Table 3 below. Potency of the compounds of Formula (I) of the invention is reported as a pEC50 value. The pEC50 value is the negative log of the EC50 value, wherein the EC50 value is the half maximal effective concentration measured in molar (M). For compounds tested in more than one experimental run, the pEC50 value is reported as an average.

## CC(=O)N[C@@H]1C[C@H](NC(C)(C)C)CC[C@@H]1N1CC[C@H](Nc2nc(CCCCNC(=O)[C@H]3CC[C@H](NC(=O)CCCO[C@H]4CC[C@H](OCCNC(=O)[C@H]5CC(=O)N(C)[C@@H]5c5cccnc5)CC4)CC3)nc3ccc(C(F)(F)F)cc23)C1=O [Example 3, (2S,3S)-N-(2-(((1R,4S)-4-(4-(((1S,4R)-4-((4-(4-(((S)-1-((1S,2R,4R)-2-Acetamido-4-(tert-butylamino)cyclohexyl)-2-oxopyrrolidin-3-yl)amino)-6-(trifluoromethyl)quinazolin-2-yl)butyl)carbamoyl)cyclohexyl)amino)-4-oxobutoxy)cyclohexyl)oxy)ethyl)-1-methyl-5-oxo-2-(pyridin-3-yl)pyrrolidine-3-carboxamide]
[1]
  concentration at 48 h: 37.1 ng/mL
[2]
  EC50: 0.158 nM

## CC(=O)N[C@@H]1C[C@H](NC(C)(C)C)CC[C@@H]1N1CC[C@H](Nc2nc([C@H]3CC[C@@H](NC(=O)[C@H]4CC[C@H](NC(=O)CCCO[C@H]5CC[C@H](OCCNC(=O)[C@H]6CC(=O)N(C)[C@@H]6c6cccnc6)CC5)CC4)CC3)nc3ccc(C(F)(F)F)cc23)C1=O [Example 10, (2S,3S)-N-(2-(((1R,4S)-4-(4-(((1R,4R)-4-(((1R,4S)-4-(4-(((S)-1-((1S,2R,4R)-2-Acetamido-4-(tert-butylamino)cyclohexyl)-2-oxopyrrolidin-3-yl)amino)-6-(trifluoromethyl)quinazolin-2-yl)cyclohexyl)carbamoyl)cyclohexyl)amino)-4-oxobutoxy)cyclohexyl)oxy)ethyl)-1-methyl-5-oxo-2-(pyridin-3-yl)pyrrolidine-3-carboxamide]
[1]
  concentration at 48 h: 35.5 ng/mL
[2]
  EC50: 0.251 nM

## CC(=O)N[C@@H]1C[C@H](NC(C)(C)C)CC[C@@H]1N1CC[C@H](Nc2nc([C@H]3CC[C@H](NC(=O)[C@H]4CC[C@H](NC(=O)CCCO[C@H]5CC[C@H](OCCNC(=O)[C@H]6CC(=O)N(C)[C@@H]6c6cccnc6)CC5)CC4)CC3)nc3ccc(C(F)(F)F)cc23)C1=O [Example 11, (2S,3S)-N-(2-(((1R,4S)-4-(4-(((1S,4R)-4-(((1S,4R)-4-(4-(((S)-1-((1S,2R,4R)-2-Acetamido-4-(tert-butylamino)cyclohexyl)-2-oxopyrrolidin-3-yl)amino)-6-(trifluoromethyl)quinazolin-2-yl)cyclohexyl)carbamoyl)cyclohexyl)amino)-4-oxobutoxy)cyclohexyl)oxy)ethyl)-1-methyl-5-oxo-2-(pyridin-3-yl)pyrrolidine-3-carboxamide]
[1]
  concentration at 48 h: 93.4 ng/mL
[2]
  EC50: 0.158 nM
